From ChEMBL document CHEMBL1150759, “[Cytotoxic and antibacterial substances from the ascidian Aplidium antillense]” (J Nat Prod, 1988)
≈ marks a conversion by molar mass, not a printed value.

Assays:
Pseudomonas aeruginosa = assay: Antimicrobial activity against Pseudomonas aeruginosa; assay type: functional
Staphylococcus aureus [1] = assay: Antimicrobial activity against methicillin-resistant Staphylococcus aureus; assay type: functional
P388 = assay: Cytotoxicity against mouse P388 cells; assay type: functional, cell-based
Proteus mirabilis = assay: Antimicrobial activity against Proteus mirabilis; assay type: functional
Enterococcus faecalis = assay: Antimicrobial activity against Streptococcus faecalis; assay type: functional
KB = assay: Cytotoxicity against human KB cells; assay type: functional, cell-based
Serratia marcescens = assay: Antimicrobial activity against Serratia marcescens; assay type: functional
Escherichia coli = assay: Antimicrobial activity against Escherichia coli; assay type: functional
Klebsiella pneumoniae = assay: Antimicrobial activity against Klebsiella pneumoniae; assay type: functional
Staphylococcus aureus [2] = assay: Antimicrobial activity against methicillin-sensitive Staphylococcus aureus; assay type: functional
Morganella morganii = assay: Antimicrobial activity against Morganella morganii; assay type: functional

| Compound | MIC (Pseudomonas aeruginosa) [µg/mL] | MBC/MIC ratio (Staphylococcus aureus [1]) | MIC (Staphylococcus aureus [1]) [µg/mL] | IC50 (P388) [µg/mL] | MIC (Proteus mirabilis) [µg/mL] | MBC/MIC ratio (Enterococcus faecalis) | MIC (Enterococcus faecalis) [µg/mL] | IC50 (KB) [µg/mL] | MIC (Serratia marcescens) [µg/mL] | MIC (Escherichia coli) [µg/mL] | MIC (Klebsiella pneumoniae) [µg/mL] | MBC/MIC ratio (Staphylococcus aureus [2]) | MIC (Staphylococcus aureus [2]) [µg/mL] | MIC (Morganella morganii) [µg/mL] |
| --- | --- | --- | --- | --- | --- | --- | --- | --- | --- | --- | --- | --- | --- | --- |
| CC(C)=CCCC1(C)C=Cc2cc(O)ccc2O1 (stereo not drawn) [CORDIACHROMENE A] | > 256 | 2 | 64 (≈ 262 µM) | 0.5 (≈ 2.05 µM) | > 256 | 1 | 64 (≈ 262 µM) | 36 (≈ 147 µM) | > 256 | > 256 | > 256 | 2 | 64 (≈ 262 µM) | > 256 |
| CC(C)=CCC/C(C)=C/Cc1cc(O)ccc1O [GEROQUINOL] | > 256 | 2 | 64 (≈ 260 µM) | 0.034 (≈ 0.138 µM) | > 256 | 1 | 64 (≈ 260 µM) | 4.3 (≈ 17.5 µM) | 128 (≈ 520 µM) | > 256 | > 256 | 2 | 64 (≈ 260 µM) | > 256 |
